Laboratory results reported in patent US20170143653A1, “USE OF SULINDAC FOR PROTECTING RETINAL PIGMENT EPITHELIAL CELLS AGAINST OXIDATIVE STRESS” (CHS PHARMA, INC., priority 2011, published 2017).
Entries after “also recorded” stand apart in the source; their conditions may differ.

Key:
Assay type in all cases: cell-based
RPE cells [1] = experiment: Reversal of sulindac protection of RPE cells against UV damage by PKC/PKG inhibitors; details: for reversal of the protective effect of sulindac against UV damage: 1200 mj UVB, rottlerin at 3 uM
Procedure: (§1) The ability of sulindac to protect RPE cells against oxidative stress was determined by analyzing cellular viability following treatment of cultured ARPE19 cells with sulindac, before exposing the cells to conditions leading to oxidative damage. Following 24 hr treatment of the cells with sulindac, ARPE19 cells were exposed to either a range of tert-Butyl Hydrogen peroxide (t-BHP) concentrations for 24 hrs or a range of intensities of ultraviolet B (UVB) to induce oxidative stress. To test the involvement of PKC, the non-specific PKC blocker chelerythrine and also specific blockers for individual isoforms of PKC were used. The possible role of PKG was investigated by the addition of PKG inhibitor Rp-8-Br-PET-CGMPs along with sulindac. Western blotting was used to detect induction of late phase markers of preconditioning.
The sulindac protective effect on RPE cells is due to ischemic preconditioning. The IPC response in tissues is often initiated by ROS and/or NO which activates mitochondrial PKC epsilon as part of a complex mechanism that also involves the opening of the mitochondrial ATP sensitive K+ channel and preventing the formation of the mitochondrial permeability transition pore. We have looked more closely at the possible role of PKC in the protection of RPE cells by sulindac, as was shown previously in cardiac studies. […] Based on previous preconditioning studies it seemed reasonable to look specifically at PKC epsilon. […] In the previous cardiac study it was also shown that two late stage preconditioning markers, iNOS and Hsp27 were induced by sulindac.
The role of PKG in the sulindac protective effect was examined. The above results support previous studies that agents that can initiate an ischemic preconditioning response may have therapeutic value in delaying the onset, or slowing the progression, of retinal diseases arising from ischemia and oxidative damage. […] Both sulindac and sildenafil are known to be inhibitors of PDE5, which results in increasing the level of cGMP and activation of PKG. […]

RPE cells [2] = experiment: Protection of RPE cells against UVB radiation damage, cell viability
Procedure: as §1
It seemed reasonable to investigate whether sulindac could also protect other cells, such as RPE cells, which are susceptible to oxidative damage and known to have a strong ischemic preconditioning (IPC) response. Two types of oxidative stress were used in these experiments, either exposure of the RPE cells to an oxidizing agent such as TBHP, or exposure to UV light. In these experiments the RPE cells were pretreated for 24 hours with varying concentrations of sulindac, sulindac sulfone or sildenafil as described in the Figures. […] To determine whether this protective effect was due to the NSAID activity of sulindac, sulindac sulfone, a metabolite, of sulindac that has no NSAID activity was tested in place of sulindac for its UV protective effect. […] It should also be noted that sulindac sulfone is not a substrate for the Msr system which eliminates the possibility that the sulindac protective effect was related to its being a substrate for the Msr enzymes and functioning as a catalytic anti-oxidant in an ROS scavenging system.

ARPE-19 cells [3] = experiment: Protection of ARPE-19 cells against 24 hr hypoxic stress, cell viability; details: 24 hours preincubation, 24 hr hypoxia
Procedure: (§2) For protecting RPE cells from oxidative stress induced damage we used the NSAID, sulindac. For our experiment we used ARPE-19 cells cultured in 96 well plates. The cells were preincubated with sulindac for 48 hours prior to exposing them to oxidative stress. Our oxidizing agents of choice were TBHP and Hydrogen peroxide (H2O2). We also stressed the ARPE-19 cells with 24 hours of Hypoxia treatment. After the stress the cellular viability was evaluated using the MTS assay. This assay uses a tetrazolium compound that is bioreduced into a formazan product in the cells. The signal generated (color intensity) is directly proportional to the number of viable (metabolically active) cells in the wells.
To test the ability of sulindac; in protecting against a variety of stresses ARPE-19 cells were exposed to 24 hours of hypoxic stress following sulindac preincubation. The ARPE-19 cells were grown in 96 well plates inside a hypoxia chamber having only 5% oxygen for 24 hours to induce hypoxic stress. Prior to exposing the cells to hypoxia, one set of cells was incubated 24 hours with sulindac.

ARPE-19 cells [4] = experiment: Protection of ARPE-19 cells against H2O2 induced oxidative stress, cell viability; details: incubated 24 hrs, then 50 μM H2O2
Procedure: as §2
The next experiment was designed to determine if preincubation with sulindac is also effective in protecting ARPE-19 cells against oxidative stress induced by treatment of retina cells with H2O2. Cells were incubated with sulindac for 24 hrs and then exposed to 50 μM H2O2.

ARPE-19 cells [5] = details: human, 48 h
Procedure: as §2
(§3) ARPE-19 cells were preincubated with different concentrations of sulindac ranging from 50 uM to 400 μM.

ARPE-19 cells [6] = experiment: Protection of ARPE-19 cells against TBHP oxidative stress, cell viability (MTS)
Procedure: as §2, §3, §1
It seemed reasonable to investigate whether sulindac could also protect other cells, such as RPE cells, which are susceptible to oxidative damage and known to have a strong ischemic preconditioning (IPC) response. Two types of oxidative stress were used in these experiments, either exposure of the RPE cells to an oxidizing agent such as TBHP, or exposure to UV light. […]

Hsp27 = experiment: Western blot of late phase preconditioning marker Hsp27 in RPE cells; details: RPE cells pretreated 48 hours
Procedure: as §1
(§4) The sulindac protective effect on RPE cells is due to ischemic preconditioning. The IPC response in tissues is often initiated by ROS and/or NO which activates mitochondrial PKC epsilon as part of a complex mechanism that also involves the opening of the mitochondrial ATP sensitive K+ channel and preventing the formation of the mitochondrial permeability transition pore. We have looked more closely at the possible role of PKC in the protection of RPE cells by sulindac, as was shown previously in cardiac studies. […]

iNOS = experiment: Western blot of late phase preconditioning marker iNOS in RPE cells; details: RPE cells pretreated 48 hours
Procedure: as §1, §4

Compound: O=c1c2nc(Br)n([C@@H]3O[C@@H]4CO[P@@](O)(=S)O[C@H]4[C@H]3O)c2nc2[nH]c(-c3ccccc3)cn12 [Rp-8-Br-PET-CGMPs]
- inhibition of the sulindac protective effect on RPE cells exposed to UV damage (RPE cells [1]; 250 nM, 24 hours with sulindac): > 50%

Compound: COc1ccc2c(c[n+](C)c3c4cc5c(cc4ccc23)OCO5)c1OC [chelerythrin]
- reversal of the protective effect of sulindac against UV damage (RPE cells [1]): significantly reversed

Compound: CC(=O)c1c(O)c(C)c(O)c(Cc2c(O)c3c(c(C(=O)/C=C/c4ccccc4)c2O)OC(C)(C)C=C3)c1O [rottlerin]
- reversal of the protective effect of sulindac against UV damage (RPE cells [1]): no reversal

Compound: CCCc1nn(C)c2c(=O)[nH]c(-c3cc(S(=O)(=O)N4CCN(C)CC4)ccc3OCC)nc12 [sildenafil]
- protection against UV damage (RPE cells [2]; 20 uM, 1200 mj UVB): can also protect RPE cells against UV damage similar to sulindac

Compound: CC1=C(CC(=O)O)c2cc(F)ccc2/C1=C\c1ccc(S(C)(=O)=O)cc1 [sulindac sulfone]
- protection against hypoxia induced stress (cell viability) (ARPE-19 cells [3]): partial protection
- protection against H2O2 induced oxidative stress (ARPE-19 cells [4]): only partial protection
- protection against UV damage (RPE cells [2]; 200 uM, 24 hours pretreatment): complete protection

Compound: CC1=C(CC(=O)O)c2cc(F)ccc2/C1=C\c1ccc([S+](C)[O-])cc1 (centres unmarked) [sulindac]
- sulindac concentration toxic to ARPE-19 cells (acute reduction of cell viability) (ARPE-19 cells [5]): ≥ 200 μM
- protection against hypoxia induced stress (cell viability) (ARPE-19 cells [3]): significant protection; also recorded: higher viability
- protection against H2O2 induced oxidative stress (ARPE-19 cells [4]): capable of protecting retina cells against H2O2 induced oxidative stress
- protection against t-BHP insult, survival (ARPE-19 cells [6]; 24 hrs pretreatment, t-BHP 24 hrs): protected them against both types of insult and enhanced survival
- protection against loss of cell viability due to oxidative stress by TBHP (ARPE-19 cells [6]; ARPE-19 cells preincubated with 50 uM to 400 μM sulindac, 48 hours, MTS assay): protected the ARPE-19 cells against loss of cell viability
- protection against TBHP damage (cell viability) (ARPE-19 cells [6]; sulindac 125 and 200 uM, 24 hours pretreatment, varying TBHP): essentially complete protections
- protection against UV exposure (RPE cells [2]; 500 uM, 24 hours pretreatment, 1200 mj UV): 50%
- protection against UVB insult, survival (RPE cells [2]; 24 hrs pretreatment, range of UVB intensities): protected them against both types of insult and enhanced survival
- induction of Hsp27 (Hsp27): significant induction
- induction of iNOS (iNOS): significant induction
